Reference: patent US12344614B2, “Benzodiazepine derivatives as GABA a GAMMA1 PAM” (Hoffmann-La Roche Inc., priority 2021, dated 2025)
Read-outs that look alike come from different tables or passages of the source.

Key:
h-GABA-A α2β2γ1 receptor = h-GABA-A α2β2γ1 receptor (Homo sapiens (Human), UniProt P47869+Q8N1C3); assay: Two-electrode voltage clamp electrophysiology in Xenopus oocytes expressing GABAA receptors; assay type: cell-based; conditions: for Efficacy (GABA) %: % modulation of GABA EC20 = 100*(Fold increase−1), compound at 30-fold Ki α2β2γ1; for Fold increase h-GABA-A α2β2γ1 oocyte @ 30-fold Ki: Xenopus oocytes, GABA EC20, test compound at approx. 30-fold its Ki α2β2γ1
Procedure: Xenopus laevis oocytes at maturation stages V-VI were used for the expression of cloned mRNA encoding GABAA receptor subunits. Oocytes ready for RNA micro-injection were bought from Ecocyte, Castrop-Rauxel, Germany and stored in modified Barth's medium (composition in mM: NaCl 88, KCl 1, NaHCO3 2.4, HEPES 10, MgSO4 0.82, CaNO3 0.33, CaCl2 0.33, pH=7.5) at 20° C. until the experiment.
Oocytes were plated in 96-well plates for microinjection using the Roboinject automated instrument (MultiChannelSystems, Reutlingen, Germany). Approximately 50 nL of an aqueous solution containing the RNA transcripts for the subunits of the desired GABAA receptor subtype was injected into each oocyte. […] Oocytes were kept in modified Barth's medium (composition in mM: NaCl 88, KCl 1, NaHCO3 4, HEPES 10, MgSO4 0.82, CaNO3 0.33, CaCl, 0.33, pH=7.5) at 20° C. until the experiment.
Electrophysiological experiments were performed using the Roboocyte instrument (MultiChannelSystems, Reutlingen, Germany) on days 3 to 5 after the micro-injection of mRNA. During the experiment the oocytes were constantly superfused by a solution containing (in mM) NaCl 90, KCl 1, HEPES 5, MgCl2 1, CaCl2 1 (pH 7.4). Oocytes were impaled by two glass microelectrodes (resistance: 0.5-0.8 MΩ) which were filled with a solution containing KCl 1M+K-acetate 1.5 M and voltage-clamped to −80 mV. The recordings were performed at room temperature using the Roboocyte two-electrode voltage clamp system (Multichannelsystem). After an initial equilibration period of 1.5 min GABA was added for 1.5 min at a concentration evoking approximately 20% of a maximal current response (EC2O). After another rest interval of 2.5 min GABA was again added evoking a response of similar amplitude and shape. […] Current traces were recorded at a digitization rate of 10 Hz during and shortly before and after the GABA application.
Each compound and concentration was tested on at least 3 oocytes. Different oocytes were used for different compound concentrations.
For the analysis, the digitized current traces of the first and second GABA response were superimposed and, if necessary, rescaled to equal maximal amplitudes. The ratio between the two responses during the time interval of test compound application was calculated point by point. The extremum of the resulting “ratio trace” was taken as the efficacy (“Fold increase”) of the compound expressed as “% modulation of GABA EC20” (100*(Fold increase−1)).

[1] = molecular target: human GABAA α1β2γ1 receptor (Homo sapiens (Human), UniProt P14867+Q8N1C3); assay: Radioligand binding assay, competition for [3H]RO7239181, membranes from HEK293F cells

SMILES | Efficacy (GABA) % (h-GABA-A α2β2γ1 receptor) [%] | Fold increase h-GABA-A α2β2γ1 oocyte @ 30-fold Ki (h-GABA-A α2β2γ1 receptor) | Ki [1] [nM] | Ki ([1]; [3H]RO7239181 20-30 nM, HEK293F membranes, 1 hour at 4° C., mean of two determinations, read-out: Ki h-GABAA α1β2γ1) [nM]
COC1CN(C(=O)c2ncn3c2CN=C(c2cc(O)ccc2F)c2c-3ccc(C(F)(F)F)c2Cl)C1 [Example 15, [7-chloro-6-(2-fluoro-5-hydroxy-phenyl)-8-(trifluoromethyl)-4H-imidazo[1,5-a][1,4]benzodiazepin-3-yl]-(3-methoxyazetidin-1-yl)methanone] | 80 | 1.80 |  | 
O=c1ccn2c(n1)CN=C(c1cc(O)ccc1F)c1c-2ccc(Cl)c1Cl [Example 6, 8,9-dichloro-7-(2-fluoro-5-hydroxy-phenyl)-5H-pyrimido[1,2-a][1,4]benzodiazepin-3-one] | 92 | 1.92 |  | 
CN1C(=O)CN=C(c2c(F)ccc(O)c2F)c2c1ccc(Cl)c2Cl [Example 12, 6,7-dichloro-5-(2,6-difluoro-3-hydroxy-phenyl)-1-methyl-3H-1,4-benzodiazepin-2-one] | 99 | 1.99 |  | 
O=c1ccn2c(n1)CN=C(c1c(F)ccc(O)c1F)c1c-2ccc(Cl)c1Cl [Example 14, 8,9-dichloro-7-(2,6-difluoro-3-hydroxy-phenyl)-5H-pyrimido[1,2-a][1,4]benzodiazepin-3-one] | 68 | 1.68 |  | 
Cc1cnc2n1-c1ccc(C(F)(F)F)c(Cl)c1C(c1nc(O)ccc1Cl)=N[C@H]2C [Example 26, 5-chloro-6-[(4S)-7-chloro-1,4-dimethyl-8-(trifluoromethyl)-4H-imidazo[1,2-a][1,4]benzodiazepin-6-yl]pyridin-2-ol] | 79 | 1.79 | 20.5 | 
COC1CN(C(=O)c2nc3n(n2)-c2ccc(C(F)(F)F)c(Cl)c2C(c2cc(O)ccc2F)=NC3)C1 [Example 16, [7-chloro-6-(2-fluoro-5-hydroxy-phenyl)-8-(trifluoromethyl)-4H-[1,2,4]triazolo[1,5-a][1,4]benzodiazepin-2-yl]-(3-methoxyazetidin-1-yl)methanone] | 48 | 1.48 |  | 11.4
Cc1nnc2n1-c1ccc(Cl)c(Cl)c1C(c1cc(O)ccc1F)=N[C@H]2C [Example 4, 4-fluoro-3-[(4S)-7,8-dichloro-1,4-dimethyl-4H-[1,2,4]triazolo[4,3-a][1,4]benzodiazepin-6-yl]phenol] | 33 | 1.33 | 3.35 | 
Cc1nnc2n1-c1ccc(Cl)c(Cl)c1C(c1c(F)ccc(O)c1F)=NC2 [Example 13, 3-(7,8-dichloro-1-methyl-4H-[1,2,4]triazolo[4,3-a][1,4]benzodiazepin-6-yl)-2,4-difluoro-phenol] | 72 | 1.72 |  | 
Cc1nc2n(n1)-c1ccc(C(F)(F)F)c(Cl)c1C(c1nc(O)ccc1Cl)=N[C@H]2C [Example 29, 5-chloro-6-[(4S)-7-chloro-2,4-dimethyl-8-(trifluoromethyl)-4H-[1,2,4]triazolo[1,5-a][1,4]benzodiazepin-6-yl]pyridin-2-ol] | 70 | 1.70 |  | 
COC1CN(C(=O)c2nc3n(n2)-c2ccc(Cl)c(Cl)c2C(c2cc(O)ccc2F)=NC3)C1 [Example 7, [7,8-dichloro-6-(2-fluoro-5-hydroxy-phenyl)-4H-[1,2,4]triazolo[1,5-a][1,4]benzodiazepin-2-yl]-(3-methoxyazetidin-1-yl)methanone] | 65 | 1.65 |  | 
CN1C(=O)CN=C(c2cc(O)ccc2F)c2c1ccc(C(F)(F)F)c2Cl [Example 8, 6-chloro-5-(2-fluoro-5-hydroxy-phenyl)-1-methyl-7-(trifluoromethyl)-3H-1,4-benzodiazepin-2-one] | 75 | 1.75 | 5.43 | 
C[C@@H]1N=C(c2c(F)ccc(O)c2F)c2c(ccc(Cl)c2Cl)-n2ccc(=O)nc21 [Example 18, (5S)-8,9-dichloro-7-(2,6-difluoro-3-hydroxy-phenyl)-5-methyl-5H-pyrimido[1,2-a][1,4]benzodiazepin-3-one] | 57 | 1.57 |  | 
Cc1nnc2n1-c1ccc(C(F)(F)F)c(Cl)c1C(c1cc(O)ccc1F)=NC2 [Example 9, 3-[7-chloro-1-methyl-8-(trifluoromethyl)-4H-[1,2,4]triazolo[4,3-a][1,4]benzodiazepin-6-yl]-4-fluoro-phenol] | 69 | 1.69 | 8.45 | 
C[C@@H]1N=C(c2cc(O)ccc2F)c2c(ccc(Cl)c2Cl)-n2ccc(=O)nc21 [Example 5, (5S)-8,9-dichloro-7-(2-fluoro-5-hydroxy-phenyl)-5-methyl-5H-pyrimido[1,2-a][1,4]benzodiazepin-3-one] | 46 | 1.46 | 3.3 | 
Cc1nnc2n1-c1ccc(Cl)c(Cl)c1C(c1cc(O)ccc1F)=NC2 [Example 3, 3-(7,8-dichloro-1-methyl-4H-[1,2,4]triazolo[4,3-a][1,4]benzodiazepin-6-yl)-4-fluoro-phenol] | 67 | 1.67 | 5.44 | 
C[C@@H]1N=C(c2nc(O)ccc2F)c2c(ccc(C(F)(F)F)c2Cl)-n2cc(C(=O)N3CCC3)nc21 [Example 30, azetidin-1-yl-[(4S)-7-chloro-6-(3-fluoro-6-hydroxy-2-pyridyl)-4-methyl-8-(trifluoromethyl)-4H-imidazo[1,2-a][1,4]benzodiazepin-2-yl]methanone] | 120 | 2.20 |  | 
Cc1nc2n(n1)-c1ccc(C(F)(F)F)c(Cl)c1C(c1nc(O)ccc1F)=N[C@H]2C [Example 25, 6-[(4S)-7-chloro-2,4-dimethyl-8-(trifluoromethyl)-4H-[1,2,4]triazolo[1,5-a][1,4]benzodiazepin-6-yl]-5-fluoro-pyridin-2-ol] | 45 | 1.45 | 25.3 | 
Cc1nnc2n1-c1ccc(C(F)(F)F)c(Cl)c1C(c1nc(O)ccc1F)=N[C@H]2C [Example 20, 6-[(4S)-7-chloro-1,4-dimethyl-8-(trifluoromethyl)-4H-[1,2,4]triazolo[4,3-a][1,4]benzodiazepin-6-yl]-5-fluoro-pyridin-2-ol] | 120 | 2.20 | 68.1 | 
Oc1ccc(F)c(C2=NCc3nncn3-c3ccc(C(F)(F)F)c(Cl)c32)c1 [Example 10, 3-[7-chloro-8-(trifluoromethyl)-4H-[1,2,4]triazolo[4,3-a][1,4]benzodiazepin-6-yl]-4-fluoro-phenol] | 73 | 1.73 |  | 
Cc1cnc2n1-c1ccc(C(F)(F)F)c(Cl)c1C(c1nc(O)ccc1F)=N[C@H]2C [Example 23, 6-[(4S)-7-chloro-1,4-dimethyl-8-(trifluoromethyl)-4H-imidazo[1,2-a][1,4]benzodiazepin-6-yl]-5-fluoro-pyridin-2-ol] | 68 | 1.68 |  | 
Cc1nnc2n1-c1ccc(C(F)(F)F)c(Cl)c1C(c1cc(O)ccc1F)=N[C@H]2C [Example 17, 4-fluoro-3-[(4S)-7-chloro-1,4-dimethyl-8-(trifluoromethyl)-4H-[1,2,4]triazolo[4,3-a][1,4]benzodiazepin-6-yl]phenol] | 77 | 1.77 |  | 
C[C@@H]1N=C(c2nc(O)ccc2F)c2c(ccc(C(F)(F)F)c2Cl)-n2c1nc1c2CCC1 [Example 24, 6-[(10S)-6-chloro-10-methyl-5-(trifluoromethyl)-1,9,12-triazatetracyclo[9.6.0.02,7.013,17]heptadeca-2(7),3,5,8,11,13(17)-hexaen-8-yl]-5-fluoro-pyridin-2-ol] | 64 | 1.64 |  | 
